# Results: patent publication US9738637B2, “Histone demethylase inhibitors” (Quanticel Pharmaceuticals, Inc., priority 2013, dated 2017)
# Experiments:
# Jarid1A = Jarid1A (Homo sapiens (Human), UniProt P29375); test: Jarid1A in vitro enzyme inhibition assay (TR-FRET); type: biochemical; conditions: H3K4me3-biotin peptide
# Experimental: (§1) This assay determines the ability of a test compound to inhibit Jarid1A, Jarid1B, JMJD2C, and JMJD2A demethylase activity.
# The enzymatic assay of Jarid1A activity is based upon Time Resolved-Fluorescence Resonance Energy Transfer (TR-FRET) detection.
# The assay reaction was initiated by the following: 2 μl of the mixture of 900 nM H3K4me3-biotin labeled peptide and 6 μM alpha-ketoglutaric acid with 2 μl of 11-point serial diluted inhibitor in 3% DMSO was added to each well of plate, followed by the addition of 2 μl of 3 nM Jarid1A to initiate the reaction. The reaction mixture was incubated at room temperature for 30 minutes, and terminated by the addition of 6 μl of 5 mM EDTA in LANCE detection buffer containing 50 nM Phycolink Streptavidin-allophycocyanin and 2 nM Europium-anti-H3K4me1-2 antibody.
# (§2) The ability of the compounds disclosed herein to inhibit demethylase activity was quantified and the respective IC50 value was determined.
# Jarid1B = Jarid1B (Homo sapiens (Human), UniProt Q9UGL1); test: Jarid1B in vitro enzyme inhibition assay (TR-FRET); type: biochemical; conditions: TR-FRET, H3K4me3-biotin peptide; read-out: IC50 Jarid1B
# Chain of Jarid1B (Q9UGL1 2-751): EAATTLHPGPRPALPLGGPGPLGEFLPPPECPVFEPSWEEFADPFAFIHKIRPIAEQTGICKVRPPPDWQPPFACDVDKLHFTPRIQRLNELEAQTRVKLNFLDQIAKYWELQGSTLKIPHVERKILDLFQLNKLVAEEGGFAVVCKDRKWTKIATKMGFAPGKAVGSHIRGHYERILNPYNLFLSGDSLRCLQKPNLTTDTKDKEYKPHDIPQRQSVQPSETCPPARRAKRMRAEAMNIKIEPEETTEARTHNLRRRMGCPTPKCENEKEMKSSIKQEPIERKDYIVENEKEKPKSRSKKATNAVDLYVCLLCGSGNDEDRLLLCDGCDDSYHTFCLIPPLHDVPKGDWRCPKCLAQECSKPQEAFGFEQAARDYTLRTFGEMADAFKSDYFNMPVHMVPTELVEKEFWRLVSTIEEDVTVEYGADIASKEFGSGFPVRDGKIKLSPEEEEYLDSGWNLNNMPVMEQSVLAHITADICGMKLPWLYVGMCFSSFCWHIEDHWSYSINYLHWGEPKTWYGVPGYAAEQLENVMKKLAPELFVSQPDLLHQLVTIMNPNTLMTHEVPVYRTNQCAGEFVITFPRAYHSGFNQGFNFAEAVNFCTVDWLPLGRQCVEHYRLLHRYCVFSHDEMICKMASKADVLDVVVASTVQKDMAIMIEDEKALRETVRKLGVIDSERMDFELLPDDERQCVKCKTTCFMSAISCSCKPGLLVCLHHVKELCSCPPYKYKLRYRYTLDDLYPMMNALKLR
# Experimental: as §1
# The reaction mixture was incubated at room temperature for 30 minutes, and terminated by the addition of 6 μl of 5 mM EDTA in LANCE detection buffer containing 50 nM Phycolink Streptavidin-allophycocyanin and 2 nM Europium-anti-H3K4me1-2 antibody.
# as §2
# JMJD2C = JMJD2C (Homo sapiens (Human), UniProt Q9H3R0); test: JMJD2C in vitro enzyme inhibition assay (TR-FRET); type: biochemical; conditions: TR-FRET, H3K9me3-biotin peptide; read-out: IC50 JNJD2C
# Chain of JMJD2C (Q9H3R0 2-372): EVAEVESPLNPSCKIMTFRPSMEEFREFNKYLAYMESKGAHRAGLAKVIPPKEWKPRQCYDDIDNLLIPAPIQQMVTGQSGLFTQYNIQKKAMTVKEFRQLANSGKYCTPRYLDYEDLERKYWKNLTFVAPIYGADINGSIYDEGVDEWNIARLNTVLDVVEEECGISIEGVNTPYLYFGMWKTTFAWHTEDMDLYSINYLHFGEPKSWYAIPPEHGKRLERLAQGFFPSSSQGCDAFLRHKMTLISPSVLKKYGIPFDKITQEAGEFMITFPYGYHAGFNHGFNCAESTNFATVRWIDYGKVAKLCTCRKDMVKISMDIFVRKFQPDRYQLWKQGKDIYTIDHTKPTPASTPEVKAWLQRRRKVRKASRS
# Experimental: as §1
# (§3) Reaction product was determined quantitatively by TR-FRET after the addition of detection reagent Phycolink Streptavidin-allophycocyanin (Prozyme) and Europium-anti-di-methylated histone H3 lysine 9 (H3K9me2) antibody (PerkinElmer) in the presence of 5 mM EDTA in LANCE detection buffer (PerkinElmer) at a final concentration of 50 nM and 1 nM, respectively.
# (§4) The assay reaction was initiated by the following: 2 μl of the mixture of 900 nM H3K9me3-biotin labeled peptide and 6 μM alpha-ketoglutaric acid with 2 μl of 11-point serial diluted inhibitor in 3% DMSO were added to each well of the plate, followed by the addition of 2 μl of 0.9 nM JMJD2C to initiate the reaction. The reaction mixture was incubated at room temperature for 30 minutes, and terminated by the addition of 6 μl of 5 mM EDTA in LANCE detection buffer containing 100 nM Phycolink Streptavidin-allophycocyanin and 2 nM Europium-anti-H3K9me2 antibody.
# as §2
# KDM5A and KDM5B = test: In vitro cell-based assay, ZR-75-1 cell line: tri-methyl H3K4 immuno-blotting (cellular inhibition of KDM5A/B); conditions: ZR-75-1 breast cancer cells, 72 hours, read-out: IC50 ZR-75-1 cell-MOA
# Description: This quantitative immuno-blotting assay measures the amount tri-methylated histone H3 at amino acid Lysine number 4, a specific substrate […] of the direct enzymatic activity of the histone demethylases KDM5A and KDM5B from extracts of the ZR-75-1 breast cancer cell line.
# This assay is a fluorometric immunoassay for the quantification of tri-methyl H3K4 extracted from cells treated with test compound and is used as a measure of the cellular inhibition of KDM5A/B.
# Cells were left in the presence of test compound for 72 hours. Extracts were prepared containing all of the cellular histone material using detergent based lysis and sonication methods. These lysates were subsequently normalized for total protein content using a colorimetric bicinchonic acid assay (MicroBCA Pierce/Thermo Scientific). Normalized cell extracts were then subjected to typical immuno-blotting procedures using NuPage reagents (Life Technologies). Electrophoretically separated histones were then transferred and immobilized using polyvinylidene difluoride membrane (Immobilon-FL Millipore). The amount of tri-methylated lysine 4 of histone H3 was detected using an antibody specific to the tri-methylated state (Cell Signaling Technologies) and quantified on an infrared imager using a densitometry software package (Odyssey CLx, Image Studio, Li-Cor). This background subtracted densitometry value was reported as a ration of the GAPDH amount for that sample and then calculated as a percent of the DMSO treated sample. The software package XL-fit (IDBS) was then used to calculate a relative IC50 value for the dilution series of a given test compound according to the equation: fit=(D+((Vmax*(x^n))/((x^n)+(Km^n)))).
# JMJD2A = JMJD2A (Homo sapiens (Human), UniProt O75164); test: JMJD2A in vitro enzyme inhibition assay (TR-FRET); type: biochemical; conditions: H3K9me3-biotin peptide
# Chain of JMJD2A (O75164 1-350): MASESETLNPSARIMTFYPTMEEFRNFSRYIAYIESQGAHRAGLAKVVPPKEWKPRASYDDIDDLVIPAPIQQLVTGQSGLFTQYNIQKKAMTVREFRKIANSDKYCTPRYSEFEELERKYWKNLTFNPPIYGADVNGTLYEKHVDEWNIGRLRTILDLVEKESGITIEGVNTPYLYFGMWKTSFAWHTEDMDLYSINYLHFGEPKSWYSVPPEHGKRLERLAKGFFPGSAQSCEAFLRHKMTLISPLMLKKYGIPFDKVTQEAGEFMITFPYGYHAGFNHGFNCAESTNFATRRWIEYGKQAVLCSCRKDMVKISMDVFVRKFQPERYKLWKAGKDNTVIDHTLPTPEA
# Experimental: as §1, §3
# as §4, with “well of plate, followed” for “well of the plate, followed”, “μl of 6 nM JMJD2A” for “μl of 0.9 nM JMJD2C”, “6 nM JMJD2A to initiate” for “0.9 nM JMJD2C to initiate”
# as §2
# Chain of Jarid1A (P29375 1-1090): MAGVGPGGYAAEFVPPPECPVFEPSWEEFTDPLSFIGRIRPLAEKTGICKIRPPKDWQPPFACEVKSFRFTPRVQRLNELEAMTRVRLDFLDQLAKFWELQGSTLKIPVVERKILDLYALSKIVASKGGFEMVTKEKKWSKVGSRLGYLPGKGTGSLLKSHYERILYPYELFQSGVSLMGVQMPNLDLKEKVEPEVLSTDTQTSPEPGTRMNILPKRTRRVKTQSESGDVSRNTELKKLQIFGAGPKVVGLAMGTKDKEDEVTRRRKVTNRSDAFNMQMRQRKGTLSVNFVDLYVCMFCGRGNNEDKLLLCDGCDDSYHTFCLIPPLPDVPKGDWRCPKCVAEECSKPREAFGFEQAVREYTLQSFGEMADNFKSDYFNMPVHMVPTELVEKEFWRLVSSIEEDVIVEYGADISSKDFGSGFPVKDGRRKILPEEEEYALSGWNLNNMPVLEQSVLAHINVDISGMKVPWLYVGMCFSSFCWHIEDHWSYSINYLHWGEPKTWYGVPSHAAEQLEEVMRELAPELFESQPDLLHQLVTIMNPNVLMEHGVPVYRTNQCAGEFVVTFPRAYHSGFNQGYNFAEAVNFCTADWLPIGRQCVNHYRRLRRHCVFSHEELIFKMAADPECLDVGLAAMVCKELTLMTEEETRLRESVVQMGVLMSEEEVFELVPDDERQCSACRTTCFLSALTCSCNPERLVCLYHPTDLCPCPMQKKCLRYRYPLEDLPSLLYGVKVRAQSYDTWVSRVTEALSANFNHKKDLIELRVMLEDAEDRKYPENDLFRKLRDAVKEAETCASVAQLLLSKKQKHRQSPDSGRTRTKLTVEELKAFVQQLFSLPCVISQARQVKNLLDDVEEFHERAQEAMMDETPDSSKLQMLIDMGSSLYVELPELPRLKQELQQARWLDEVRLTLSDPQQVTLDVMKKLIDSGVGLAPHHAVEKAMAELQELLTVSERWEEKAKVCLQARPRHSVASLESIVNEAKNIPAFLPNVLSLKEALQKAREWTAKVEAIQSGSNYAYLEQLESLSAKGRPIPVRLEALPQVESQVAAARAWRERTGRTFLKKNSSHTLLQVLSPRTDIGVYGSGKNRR
SMILES,IC50 (Jarid1A),IC50 (Jarid1B),IC50 (JMJD2C),IC50 (KDM5A and KDM5B),IC50 (JMJD2A)
"COC(=O)c1ccnc2cc(Cc3ccccc3)[nH]c12 [Example 6, methyl 2-benzyl-1H-pyrrolo[3,2-b]pyridine-7-carboxylate]",> 10 µM,> 10 µM,> 10 µM,> 10 µM,
"Cc1ccccc1-c1cc2nccc(C(=O)O)c2[nH]1 [Example 3, 2-(2-methylphenyl)-1H-pyrrolo[3,2-b]pyridine-7-carboxylic acid]",0.1 to 1 µM,0.1 to 1 µM,0.1 to 1 µM,,< 0.1 µM
"O=C(O)c1ccnc2cc(-c3ccccc3)[nH]c12 [Example 2, 2-phenyl-1H-pyrrolo[3,2-b]pyridine-7-carboxylic acid]",0.1 to 1 µM,0.1 to 1 µM,0.1 to 1 µM,,0.1 to 1 µM
"O=C(O)c1ccnc2cc(Cc3ccc(F)c(F)c3)[nH]c12 [Example 126, 2-(3,4-difluorobenzyl)-1H-pyrrolo[3,2-b]pyridine-7-carboxylic acid]",1 to 10 µM,1 to 10 µM,< 0.1 µM,,< 0.1 µM
"Cc1cc(Cc2cc3nccc(C(=O)O)c3[nH]2)ccc1Cl [Example 134, 2-(4-chloro-3-methylbenzyl)-1H-pyrrolo[3,2-b]pyridine-7-carboxylic acid]",1 to 10 µM,0.1 to 1 µM,< 0.1 µM,,0.1 to 1 µM
"O=C(O)c1ccnc2cc(Cc3ccc(Cl)c(OCC4CC4)c3)[nH]c12 [Example 138, 2-[4-chloro-3-(cyclopropylmethoxy)benzyl]-1H-pyrrolo[3,2-b]pyridine-7-carboxylic acid]",0.1 to 1 µM,< 0.1 µM,< 0.1 µM,,1 to 10 µM
"COC(=O)c1ccnc2cc(C(O)C3CCOCC3)[nH]c12 (racemic) [Example 42, (±)-methyl 2-[hydroxy(oxan-4-yl)methyl]-1H-pyrrolo[3,2-b]pyridine-7-carboxylate]",,,,> 10 µM,
"O=C(O)c1ccnc2cc(Cc3ccc(Cl)c(OC(F)(F)F)c3)[nH]c12 [Example 142, 2-[4-chloro-3-(trifluoromethoxy)benzyl]-1H-pyrrolo[3,2-b]pyridine-7-carboxylic acid]",0.1 to 1 µM,< 0.1 µM,< 0.1 µM,,0.1 to 1 µM
"COC(=O)c1ccnc2cc(C(C)(O)c3ccccc3)[nH]c12 (racemic) [Example 45, (±)-methyl 2-(1-hydroxy-1-phenylethyl)-1H-pyrrolo[3,2-b]pyridine-7-carboxylate]",,,,> 10 µM,
"CC(O)(c1ccccc1)c1cc2nccc(C(=O)O)c2[nH]1 (racemic) [Example 46, (±)-2-(1-hydroxy-1-phenylethyl)-1H-pyrrolo[3,2-b]pyridine-7-carboxylic acid]",< 0.1 µM,0.1 to 1 µM,0.1 to 1 µM,> 10 µM,
"O=C(O)c1ccnc2cc(COc3ccc(Cl)cc3)[nH]c12 [Example 64, 2-[(4-chlorophenoxy)methyl]-1H-pyrrolo[3,2-b]pyridine-7-carboxylic acid]",< 0.1 µM,< 0.1 µM,< 0.1 µM,1 to 10 µM,
"COC(=O)c1ccnc2cc(C(O)c3ccnn3C)[nH]c12 (racemic) [Example 47, (±)-methyl 2-[hydroxy-(2-methylpyrazol-3-yl)methyl]-1H-pyrrolo[3,2-b]pyridine-7-carboxylate]",,,,> 10 µM,
"COc1cccc(Cc2cc3nccc(C(=O)O)c3[nH]2)c1 [Example 34, 2-[(3-methoxyphenyl)methyl]-1H-pyrrolo[3,2-b]pyridine-7-carboxylic acid]",< 0.1 µM,0.1 to 1 µM,0.1 to 1 µM,> 10 µM,

# Results, then the compound that gave them:
IC50 (Jarid1A),IC50 (Jarid1B),IC50 (JMJD2C),IC50 (KDM5A and KDM5B),IC50 (JMJD2A),SMILES
< 0.1 µM,< 0.1 µM,< 0.1 µM,,< 0.1 µM,"O=C(O)c1ccnc2cc(C(=O)N3CCCC3)[nH]c12 [Example 99, 2-(pyrrolidin-1-ylcarbonyl)-1H-pyrrolo[3,2-b]pyridine-7-carboxylic acid]"
< 0.1 µM,< 0.1 µM,0.1 to 1 µM,> 10 µM,,"O=C(O)c1ccnc2cc(Cc3ccc(Cl)cc3)[nH]c12 [Example 44, 2-[(4-chlorophenyl)methyl]-1H-pyrrolo[3,2-b]pyridine-7-carboxylic acid]"
< 0.1 µM,< 0.1 µM,0.1 to 1 µM,,0.1 to 1 µM,"O=C(O)c1ccnc2cc(C(O)C3CCOCC3)[nH]c12 (racemic) [Example 43, (±)-2-[hydroxy(oxan-4-yl)methyl]-1H-pyrrolo[3,2-b]pyridine-7-carboxylic acid]"
< 0.1 µM,< 0.1 µM,0.1 to 1 µM,1 to 10 µM,,"O=C(O)c1ccnc2cc(COc3ccc(F)cc3)[nH]c12 [Example 60, 2-[(4-fluorophenoxy)methyl]-1H-pyrrolo[3,2-b]pyridine-7-carboxylic acid]"
< 0.1 µM,< 0.1 µM,< 0.1 µM,> 10 µM,,"Cn1nccc1C(O)c1cc2nccc(C(=O)O)c2[nH]1 (racemic) [Example 48, (±)-2-[hydroxy-(2-methylpyrazol-3-yl)methyl]-1H-pyrrolo[3,2-b]pyridine-7-carboxylic acid]"
< 0.1 µM,< 0.1 µM,< 0.1 µM,> 10 µM,,"O=C(O)c1ccnc2cc(Cc3ccc(F)cc3)[nH]c12 [Example 101, 2-[(4-fluorophenyl)methyl]pyrrolo[3,2-b]pyridine-7-carboxylic acid]"
< 0.1 µM,< 0.1 µM,0.1 to 1 µM,> 10 µM,,"Cc1ccccc1OCc1cc2nccc(C(=O)O)c2[nH]1 [Example 66, 2-[(2-methylphenoxy)methyl]-1H-pyrrolo[3,2-b]pyridine-7-carboxylic acid]"
< 0.1 µM,0.1 to 1 µM,< 0.1 µM,> 10 µM,,"Cc1cccc(Cc2cc3nccc(C(=O)O)c3[nH]2)c1 [Example 36, 2-[(3-methylphenyl)methyl]-1H-pyrrolo[3,2-b]pyridine-7-carboxylic acid]"
< 0.1 µM,< 0.1 µM,< 0.1 µM,> 10 µM,,"Cc1cccc(OCc2cc3nccc(C(=O)O)c3[nH]2)c1 [Example 74, 2-[(3-methylphenoxy)methyl]-1H-pyrrolo[3,2-b]pyridine-7-carboxylic acid]"
< 0.1 µM,< 0.1 µM,< 0.1 µM,,0.1 to 1 µM,"O=C(O)c1ccnc2cc(COc3ccccc3)[nH]c12 [Example 39, 2-(phenoxymethyl)-1H-pyrrolo[3,2-b]pyridine-7-carboxylic acid]"
< 0.1 µM,< 0.1 µM,0.1 to 1 µM,> 10 µM,,"O=C(O)c1ccnc2cc(C(O)c3ccccc3Cl)[nH]c12 (racemic) [Example 72, (±)-2-[(2-chlorophenyl)-hydroxymethyl]-1H-pyrrolo[3,2-b]pyridine-7-carboxylic acid]"
